Measurements: patent publication US4829076A, “Novel dihydropyridines having calcium antagonistic and antihypertensive activity” (Alkaloida Vegyeszeti Gyar, priority 1986, dated 1989)
Read-outs that look alike come from different tables or passages of the source.

What was measured:
[1] = tested on: spontaneously hypertensive conscious rats; test: Antihypertensive effect in spontaneously hypertensive conscious rats ("SH" rats); assay type: in vivo, rat (Wistar-Okamoto); details: for change in vivo at 5 mg/kg / change in vivo at 10 mg/kg: Rattus norvegicus, po
Procedure: The blood pressure of rats was measured before treatment and hourly after drug administration till the 24th posttreatment hour. The test compounds were administered orally, by gavage.

[2] = target: T1, 1,4-dihydropyridine receptor; test: Receptor binding studies (displacement of 3H-nitrendipine, heart microsomal preparation); details: displacement of 50% of 3H-nitrendipine
T1 construct: to the heart microsomal preparation; from tissue; host or cells: heart microsomal preparation
T1 sequence (Q13936 whole entry): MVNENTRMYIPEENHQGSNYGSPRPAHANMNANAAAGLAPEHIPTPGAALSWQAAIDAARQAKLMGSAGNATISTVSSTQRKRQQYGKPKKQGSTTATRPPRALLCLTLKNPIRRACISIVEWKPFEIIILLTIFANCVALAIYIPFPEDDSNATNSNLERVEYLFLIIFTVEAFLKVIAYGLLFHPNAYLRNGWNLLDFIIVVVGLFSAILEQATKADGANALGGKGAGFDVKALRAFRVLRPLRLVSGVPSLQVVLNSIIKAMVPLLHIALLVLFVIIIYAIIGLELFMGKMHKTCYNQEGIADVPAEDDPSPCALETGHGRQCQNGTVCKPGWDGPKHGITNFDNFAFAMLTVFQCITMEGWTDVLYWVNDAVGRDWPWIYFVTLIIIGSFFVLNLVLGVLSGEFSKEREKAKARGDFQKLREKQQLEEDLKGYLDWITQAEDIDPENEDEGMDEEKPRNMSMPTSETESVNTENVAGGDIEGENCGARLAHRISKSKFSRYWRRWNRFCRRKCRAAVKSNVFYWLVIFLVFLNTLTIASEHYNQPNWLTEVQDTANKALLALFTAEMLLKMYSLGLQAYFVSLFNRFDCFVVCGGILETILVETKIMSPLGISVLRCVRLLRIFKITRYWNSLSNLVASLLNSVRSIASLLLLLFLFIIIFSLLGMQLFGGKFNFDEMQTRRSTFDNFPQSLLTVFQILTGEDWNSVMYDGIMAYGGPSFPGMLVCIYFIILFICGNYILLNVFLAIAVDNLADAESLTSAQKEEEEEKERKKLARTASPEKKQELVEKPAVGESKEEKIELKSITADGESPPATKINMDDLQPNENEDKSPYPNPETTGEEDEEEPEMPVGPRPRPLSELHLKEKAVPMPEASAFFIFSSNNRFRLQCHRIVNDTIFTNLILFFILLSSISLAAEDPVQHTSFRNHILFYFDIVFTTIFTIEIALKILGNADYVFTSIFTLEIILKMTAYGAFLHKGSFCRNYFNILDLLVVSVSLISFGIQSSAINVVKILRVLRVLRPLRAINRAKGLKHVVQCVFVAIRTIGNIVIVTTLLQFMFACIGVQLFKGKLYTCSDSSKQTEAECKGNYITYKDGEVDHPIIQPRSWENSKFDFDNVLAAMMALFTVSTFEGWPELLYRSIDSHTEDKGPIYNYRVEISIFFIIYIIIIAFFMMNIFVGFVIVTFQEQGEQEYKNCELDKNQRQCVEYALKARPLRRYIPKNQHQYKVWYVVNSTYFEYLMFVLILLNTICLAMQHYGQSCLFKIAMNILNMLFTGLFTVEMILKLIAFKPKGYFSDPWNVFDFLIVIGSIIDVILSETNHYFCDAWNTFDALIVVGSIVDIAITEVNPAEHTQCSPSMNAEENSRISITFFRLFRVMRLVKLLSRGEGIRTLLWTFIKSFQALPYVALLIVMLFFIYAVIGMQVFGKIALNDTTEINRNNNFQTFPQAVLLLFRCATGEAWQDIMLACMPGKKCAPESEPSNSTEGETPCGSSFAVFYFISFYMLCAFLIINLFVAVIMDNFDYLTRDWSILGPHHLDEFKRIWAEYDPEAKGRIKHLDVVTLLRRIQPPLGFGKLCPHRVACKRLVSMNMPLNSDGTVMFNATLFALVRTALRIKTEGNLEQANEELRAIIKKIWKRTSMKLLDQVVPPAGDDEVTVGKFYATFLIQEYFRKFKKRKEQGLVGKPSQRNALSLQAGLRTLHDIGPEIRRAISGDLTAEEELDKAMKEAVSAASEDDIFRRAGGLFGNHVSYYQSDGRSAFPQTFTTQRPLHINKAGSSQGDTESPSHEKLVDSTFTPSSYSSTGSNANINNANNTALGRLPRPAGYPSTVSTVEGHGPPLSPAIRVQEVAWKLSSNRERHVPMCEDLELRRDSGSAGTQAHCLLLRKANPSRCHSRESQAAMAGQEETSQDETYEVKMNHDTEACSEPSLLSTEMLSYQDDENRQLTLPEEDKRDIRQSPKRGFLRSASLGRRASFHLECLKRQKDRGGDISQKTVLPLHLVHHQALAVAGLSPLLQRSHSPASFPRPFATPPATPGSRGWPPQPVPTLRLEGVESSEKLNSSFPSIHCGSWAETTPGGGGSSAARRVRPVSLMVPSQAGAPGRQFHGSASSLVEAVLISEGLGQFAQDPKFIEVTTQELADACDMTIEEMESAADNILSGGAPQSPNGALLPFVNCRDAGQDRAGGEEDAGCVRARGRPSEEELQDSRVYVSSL
T1 sequence (P54289 25-955 partner limits assumed): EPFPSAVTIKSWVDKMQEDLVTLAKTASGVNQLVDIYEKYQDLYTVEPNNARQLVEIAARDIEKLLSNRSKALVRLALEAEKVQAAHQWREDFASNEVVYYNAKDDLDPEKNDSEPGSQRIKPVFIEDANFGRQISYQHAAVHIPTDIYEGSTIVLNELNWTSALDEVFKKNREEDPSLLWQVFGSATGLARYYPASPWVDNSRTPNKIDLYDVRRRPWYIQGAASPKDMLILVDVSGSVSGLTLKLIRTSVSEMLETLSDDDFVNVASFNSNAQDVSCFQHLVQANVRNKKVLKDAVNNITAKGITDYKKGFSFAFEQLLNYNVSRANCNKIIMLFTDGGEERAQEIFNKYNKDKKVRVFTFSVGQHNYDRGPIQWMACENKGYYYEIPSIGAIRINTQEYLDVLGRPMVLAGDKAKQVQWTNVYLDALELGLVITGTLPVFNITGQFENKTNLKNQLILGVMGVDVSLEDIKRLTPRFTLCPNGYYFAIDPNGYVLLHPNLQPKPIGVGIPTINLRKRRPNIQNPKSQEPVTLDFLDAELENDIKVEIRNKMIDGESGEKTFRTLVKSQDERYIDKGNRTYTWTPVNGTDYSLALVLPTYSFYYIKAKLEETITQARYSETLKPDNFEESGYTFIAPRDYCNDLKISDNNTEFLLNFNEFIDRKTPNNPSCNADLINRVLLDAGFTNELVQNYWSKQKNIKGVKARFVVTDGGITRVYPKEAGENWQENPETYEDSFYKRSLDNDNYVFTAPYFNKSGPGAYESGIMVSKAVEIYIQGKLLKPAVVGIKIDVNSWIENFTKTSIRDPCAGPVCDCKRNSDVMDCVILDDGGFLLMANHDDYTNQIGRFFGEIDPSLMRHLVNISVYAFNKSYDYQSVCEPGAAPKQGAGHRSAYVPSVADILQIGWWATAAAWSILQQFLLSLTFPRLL
T1 sequence (P54289 956-1103 partner limits assumed): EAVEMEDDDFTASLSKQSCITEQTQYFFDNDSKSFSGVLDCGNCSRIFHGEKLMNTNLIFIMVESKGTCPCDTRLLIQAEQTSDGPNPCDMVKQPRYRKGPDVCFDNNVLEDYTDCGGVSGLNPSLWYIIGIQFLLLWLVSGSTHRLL
T1 sequence (Q08289 whole entry partner): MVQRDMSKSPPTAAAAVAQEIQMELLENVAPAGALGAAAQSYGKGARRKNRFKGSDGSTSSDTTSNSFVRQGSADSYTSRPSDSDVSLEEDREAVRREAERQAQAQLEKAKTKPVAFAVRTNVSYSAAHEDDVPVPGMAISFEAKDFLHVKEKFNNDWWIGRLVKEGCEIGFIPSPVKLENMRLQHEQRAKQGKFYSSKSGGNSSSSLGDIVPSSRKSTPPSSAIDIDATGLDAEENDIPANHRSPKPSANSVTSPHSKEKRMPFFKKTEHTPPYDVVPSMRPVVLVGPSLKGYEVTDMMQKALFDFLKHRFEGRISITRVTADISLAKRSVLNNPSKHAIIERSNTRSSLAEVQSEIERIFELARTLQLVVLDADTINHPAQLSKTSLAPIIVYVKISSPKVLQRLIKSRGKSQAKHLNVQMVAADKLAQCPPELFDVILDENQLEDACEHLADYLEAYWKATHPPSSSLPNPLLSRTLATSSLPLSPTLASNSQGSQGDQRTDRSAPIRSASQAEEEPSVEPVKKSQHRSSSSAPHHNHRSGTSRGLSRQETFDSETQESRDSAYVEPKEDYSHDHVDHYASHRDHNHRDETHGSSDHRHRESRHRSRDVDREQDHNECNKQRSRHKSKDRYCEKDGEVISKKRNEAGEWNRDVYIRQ

[3] = tested on: anesthetized, normotensive cats; test: Hypotensive effect in anesthetized, normotensive cats; assay type: in vivo, cat; details: 1 mg/kg id.
Procedure: A tube was inserted in the trachea of cats anesthetized with ip.35 mg/kg of pentobarbital sodium to ensure spontaneous respiration. The femoral artery and vein were both cannulated unilaterally. The vegetative test compounds (adrenaline, isoproterenol) were administered through the venous cannule. The mean arterial blood pressure was measured by joining the arterial cannule to a Statham P23Db pressure transducer and electromanometer. The heart rate was determined by a cardiotachometer triggered by arterial pulse-wave.
Various doses of the test compounds were administered through a cannule inserted into the duodenum.

[4] = tested on: conscious rats with renal hypertension; test: Antihypertensive effect in rats with renal hypertension ("RH" rats); assay type: in vivo, rat (CFY male); details: for Systolic blood pressure, 0 h: 0 h (baseline)
Procedure: The test was performed according to the method of Grollman [Proc. Soc. Exptl. […] The test compounds were administered orally.

[5] = tested on: conscious rats with DOCA-induced hypertension; test: Antihypertensive effect in rats with DOCA-induced hypertension ("DH" rats); assay type: in vivo, rat; details: for Systolic blood pressure, 0 h: 0 h (baseline)
Procedure: The test was performed according to Cunning et al. [J. Pharm. Exp. Ther. 161, 88 (1981)].

[6] = target: T2, potential-mediated calcium channel (Rattus norvegicus, UniProt P22002); test: Calcium-antagonistic effect on an isolated vessel preparation (portal vein); details: depolarizing solution (90 mM KCl), CaCl2 2.5 and 5.0 mM, 37° C., pH 7.4, read-out: Inhibition of the potential-mediated calcium channel, IC50
T2 construct: Portal veins were obtained from decapitated male rats; from tissue; host or cells: rat portal vein (longitudinally incised venous segment)
Procedure: Portal veins were obtained from decapitated male rats weighing 300 to 350 g. The longitudinally incised venous segment was suspended in an organ chamber (10 ml) filled with physiological saline solution under resting tension of 1 g. Its upper end was attached to a HSI force-displacement transducer. Isometric contractions were recorded with a Beckman Dynograph.
After the initial equilibration period in a calcium-free Krebs-Ringer bicarbonate solution (KRB) the vein was exposed to a depolarizing solution (calcium-free KRB containing 90 mM of KCl) for 10 minutes. In order to determine the cumulative contractile responses CaCl2 was added in an end-concentration of 2.5 and 5.0 mM, resp. Each medium was oxygenated with carbogen gas and maintained at 37° C. and pH 7.4.
The influence of the test compounds on the contraction was determined by incubating the veins in the depolarizing solution for 10 minutes before and during exposure to Ca^2+. Each vein preparation was subjected to a single concentration of the test compound.
For each experiment the 100% responses were considered as the maximum contractile responses during the control Ca curves. The contractions after exposure to the test compounds were expressed as the percentage of these values.

[7] = tested on: PGF2alpha induced uterus contractions (isolated rat uterus); test: In vitro uterus relaxant activity in the isolated rat uterus (inhibition of PGF2alpha induced contraction); details: 10^-6 M test compound
Procedure: The test was performed according to the method of Gaddum and Hammeed [Brit. […] The inhibitory activity of 10^-6 M doses of the test compounds on the PGF2alpha induced uterus contractions was determined.

[8] = 10 mg/kg p.o., 2 h, read-out: Systolic blood pressure reduction in %, 2 h
[9] = 10 mg/kg p.o., 5 h, read-out: Systolic blood pressure reduction in %, 5 h
[10] = 10 mg/kg p.o., 24 h, read-out: Systolic blood pressure reduction in %, 24 h

Compound: COC(=O)C1=C(C)NC(C)=C(C(=O)OC)C1c1ccccc1NC(=O)c1ccc([N+](=O)[O-])cc1 [Example 7]
- Systolic blood pressure, 2 h ([1]; 5 mg/kg p.o., 2 h): 175.2 Hgmm
- Systolic blood pressure, 5 h ([1]; 5 mg/kg p.o., 5 h): 157.6 Hgmm
- Systolic blood pressure, 24 h ([1]; 5 mg/kg p.o., 24 h): 217.6 Hgmm
- Systolic blood pressure, 2 h ([1]; 10 mg/kg p.o., 2 h): 164.0 Hgmm
- Systolic blood pressure, 5 h ([1]; 10 mg/kg p.o., 5 h): 164.0 Hgmm
- Systolic blood pressure, 24 h ([1]; 10 mg/kg p.o., 24 h): 230.0 Hgmm
- change in vivo at 5 mg/kg ([1]; 5 mg/kg p.o., 2 h, read-out: Systolic blood pressure reduction in %, 2 h): -15%
- change in vivo at 5 mg/kg ([1]; 5 mg/kg p.o., 5 h, read-out: Systolic blood pressure reduction in %, 5 h): -24%
- change in vivo at 5 mg/kg ([1]; 5 mg/kg p.o., 24 h, read-out: Systolic blood pressure reduction in %, 24 h): 5%
- change in vivo at 10 mg/kg [1, 8]: -28%
- change in vivo at 10 mg/kg [1, 9]: -28%
- change in vivo at 10 mg/kg [1, 10]: 1%
- IC50 [2]: 6.3 ± 0.05 nM
- Mean arterial pressure, 5 min [3]: 115 Hgmm
- Mean arterial pressure, 15 min [3]: 60 Hgmm
- Mean arterial pressure, 30 min [3]: 50 Hgmm
- Mean arterial pressure, 60 min [3]: 60 Hgmm
- Mean arterial pressure, 120 min [3]: 85 Hgmm
- Systolic blood pressure, 0 h ([4]; 5 mg/kg p.o.): 206.6 Hgmm
- Pressure reduction in %, 2 h ([4]; 5 mg/kg p.o.): -15%
- Systolic blood pressure, 2 h ([4]; 5 mg/kg p.o.): 177.7 Hgmm
- Pressure reduction in %, 5 h ([4]; 5 mg/kg p.o.): -13%
- Systolic blood pressure, 5 h ([4]; 5 mg/kg p.o.): 188.6 Hgmm
- Pressure reduction in %, 24 h ([4]; 5 mg/kg p.o.): +3%
- Systolic blood pressure, 24 h ([4]; 5 mg/kg p.o.): 213.3 Hgmm
- Systolic blood pressure, 0 h ([4]; 10 mg/kg p.o.): 198.8 Hgmm
- Pressure reduction in %, 2 h ([4]; 10 mg/kg p.o.): -31%
- Systolic blood pressure, 2 h ([4]; 10 mg/kg p.o.): 138.8 Hgmm
- Pressure reduction in %, 5 h ([4]; 10 mg/kg p.o.): -25%
- Systolic blood pressure, 5 h ([4]; 10 mg/kg p.o.): 150.0 Hgmm
- Pressure reduction in %, 24 h ([4]; 10 mg/kg p.o.): +6%
- Systolic blood pressure, 24 h ([4]; 10 mg/kg p.o.): 212.2 Hgmm
- Systolic blood pressure, 0 h ([5]; 5 mg/kg p.o.): 176.8 Hgmm
- Pressure reduction in %, 2 h ([5]; 5 mg/kg p.o.): -24%
- Systolic blood pressure, 2 h ([5]; 5 mg/kg p.o.): 135.7 Hgmm
- Pressure reduction in %, 5 h ([5]; 5 mg/kg p.o.): -16%
- Systolic blood pressure, 5 h ([5]; 5 mg/kg p.o.): 149.4 Hgmm
- Pressure reduction in %, 24 h ([5]; 5 mg/kg p.o.): +2%
- Systolic blood pressure, 24 h ([5]; 5 mg/kg p.o.): 180.8 Hgmm
- Systolic blood pressure, 0 h ([5]; 10 mg/kg p.o.): 176.2 Hgmm
- Pressure reduction in %, 2 h ([5]; 10 mg/kg p.o.): -28%
- Systolic blood pressure, 2 h ([5]; 10 mg/kg p.o.): 126.7 Hgmm
- Pressure reduction in %, 5 h ([5]; 10 mg/kg p.o.): -17%
- Systolic blood pressure, 5 h ([5]; 10 mg/kg p.o.): 147.5 Hgmm
- Pressure reduction in %, 24 h ([5]; 10 mg/kg p.o.): 0%
- Systolic blood pressure, 24 h ([5]; 10 mg/kg p.o.): 177.5 Hgmm
- IC50 [6]: 0.5 nM

Compound: COC(=O)C1=C(C)NC(C)=C(C(=O)OC)C1c1ccccc1NC(=O)C(F)(F)F [Example 34, 2,6-Dimethyl-3,5-bis(methoxycarbonyl)-4-(2-trifluoro-acetamidophenyl)-1,4-dihydropyridine]
- Systolic blood pressure, 2 h ([1]; 10 mg/kg p.o., 2 h): 170.0 Hgmm
- Systolic blood pressure, 5 h ([1]; 10 mg/kg p.o., 5 h): 182.0 Hgmm
- Systolic blood pressure, 24 h ([1]; 10 mg/kg p.o., 24 h): 216.0 Hgmm
- change in vivo at 10 mg/kg [1, 8]: -25%
- change in vivo at 10 mg/kg [1, 9]: -19%
- change in vivo at 10 mg/kg [1, 10]: -4%
- IC50 [2]: 16 ± 1.6 nM
- Mean arterial pressure, 5 min [3]: 90 Hgmm
- Mean arterial pressure, 15 min [3]: 60 Hgmm
- Mean arterial pressure, 30 min [3]: 75 Hgmm
- Mean arterial pressure, 60 min [3]: 90 Hgmm
- Mean arterial pressure, 120 min [3]: 105 Hgmm
- Systolic blood pressure, 0 h ([4]; 10 mg/kg p.o.): 198.0 Hgmm
- Pressure reduction in %, 2 h ([4]; 10 mg/kg p.o.): -28%
- Systolic blood pressure, 2 h ([4]; 10 mg/kg p.o.): 141.0 Hgmm
- Pressure reduction in %, 5 h ([4]; 10 mg/kg p.o.): -14%
- Systolic blood pressure, 5 h ([4]; 10 mg/kg p.o.): 167.0 Hgmm
- Pressure reduction in %, 24 h ([4]; 10 mg/kg p.o.): 0%
- Systolic blood pressure, 24 h ([4]; 10 mg/kg p.o.): 199.0 Hgmm
- Systolic blood pressure, 0 h ([5]; 5 mg/kg p.o.): 192.0 Hgmm
- Pressure reduction in %, 2 h ([5]; 5 mg/kg p.o.): -22%
- Systolic blood pressure, 2 h ([5]; 5 mg/kg p.o.): 150.0 Hgmm
- Pressure reduction in %, 5 h ([5]; 5 mg/kg p.o.): -16%
- Systolic blood pressure, 5 h ([5]; 5 mg/kg p.o.): 163.0 Hgmm
- Pressure reduction in %, 24 h ([5]; 5 mg/kg p.o.): 0%
- Systolic blood pressure, 24 h ([5]; 5 mg/kg p.o.): 193.0 Hgmm
- Systolic blood pressure, 0 h ([5]; 10 mg/kg p.o.): 189.0 Hgmm
- Pressure reduction in %, 2 h ([5]; 10 mg/kg p.o.): -23%
- Systolic blood pressure, 2 h ([5]; 10 mg/kg p.o.): 146.0 Hgmm
- Pressure reduction in %, 5 h ([5]; 10 mg/kg p.o.): -30%
- Systolic blood pressure, 5 h ([5]; 10 mg/kg p.o.): 134.0 Hgmm
- Pressure reduction in %, 24 h ([5]; 10 mg/kg p.o.): -2%
- Systolic blood pressure, 24 h ([5]; 10 mg/kg p.o.): 186.0 Hgmm
- IC50 [6]: 2.5 nM
- Inhibition of PGF2alpha induced contraction [7]: 98.0%
